Results: patent publication US10329294B2, “Pyrazolopyrimidine inhibitors of IRAK4 activity” (MERCK SHARP & DOHME CORP., priority 2015, dated 2019)
Structures can show the parent of a compound that is named as a salt.

target: IRAK4 (Homo sapiens (Human), UniProt Q9NWZ3); assay: IRAK4 Kinase Assay; type: biochemical; settings: IMAP fluorescence polarization, 0.5 nM GST tagged IRAK4, 100 μM ATP, 30 minutes at 25° C.; read-out: IRAK4 IC50
Sequence (Q9NWZ3 whole entry): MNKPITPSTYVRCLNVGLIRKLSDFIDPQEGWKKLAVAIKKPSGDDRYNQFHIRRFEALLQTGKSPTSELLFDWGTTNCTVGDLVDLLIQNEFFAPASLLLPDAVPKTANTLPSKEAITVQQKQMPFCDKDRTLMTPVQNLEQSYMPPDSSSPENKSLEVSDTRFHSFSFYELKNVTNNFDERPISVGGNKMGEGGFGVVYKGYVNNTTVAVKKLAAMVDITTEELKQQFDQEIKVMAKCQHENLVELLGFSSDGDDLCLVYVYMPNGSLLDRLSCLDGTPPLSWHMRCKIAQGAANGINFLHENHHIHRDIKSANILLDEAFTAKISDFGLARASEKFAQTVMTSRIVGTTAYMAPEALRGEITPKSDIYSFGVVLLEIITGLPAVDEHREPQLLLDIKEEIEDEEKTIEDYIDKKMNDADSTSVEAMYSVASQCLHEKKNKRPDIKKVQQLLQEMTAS

| IC50 | SMILES |
| --- | --- |
| 5600 nM | O=C(Nc1ccccc1C(F)(F)F)c1cnn2ccc(N3CC4CCC3CN4)nc12 (centres unmarked) [Example 115, 5-(2,5-diazabicyclo[2.2.2]oct-2-yl)-N-[2-(trifluoromethyl)phenyl] pyraozlo[1,5-a]pyrimidine-3-carboxamide trifluoroacetate] |
| 24 nM | Cc1cnc(-c2nn(C)cc2NC(=O)c2cnn3ccc(N[C@@H]4CCCC[C@@H]4N)nc23)o1 [Example 285, 5-{[(1R,2S)-2-aminocyclohexyl]amino}-N-[1-methyl-3-(5-methyl-1,3-oxazol-2-yl)-1H-pyrazol-4-yl]pyrazolo[1,5-a]pyrimidine-3-carboxamide trifluoroacetate] |
| 328 nM | N[C@@H]1[C@H](Nc2ccn3ncc(C(=O)Nc4cn(C(F)F)nc4C(F)(F)F)c3n2)CCCC1(F)F [Example 71, 5-{[(1R,2R)-2-amino-3,3-difluorocyclohexyl]amino}-N-[1-(difluoromethyl)-3-(trifluoromethyl)-1H-pyrazol-4-yl]pyrazolo[1,5-a]pyrimidine-3-carboxamide trifluoroacetate] |
| 10 nM | N#Cc1ccccc1NC(=O)c1cnn2ccc(N[C@@H]3CCCNC3)nc12 [Example 270, N-(2-cyanophenyl)-5-[(3R)-piperidin-3-ylamino]pyrazolo[1,5-a]pyrimidine-3-carboxamide trifluoroacetate] |
| 30 nM | C[C@@H]1CN[C@@H](C)CN1c1ccn2ncc(C(=O)Nc3cn(C)nc3C(F)(F)F)c2n1 (relative stereo) [Example 93, 5-[trans-2,5-dimethylpiperazin-1-yl]-N-[1-methyl-3-(trifluoromethyl)-1H-pyrazol-4-yl]pyrazolo[1,5-a]pyrimidine-3-carboxamide trifluoroacetate] |
| 0.5 nM | Cn1cc(NC(=O)c2cnn3ccc(N[C@@H]4CCCC[C@@H]4N)nc23)c(Cl)n1 [Example 149, 5-{[(1R,2S)-2-aminocyclohexyl]amino}-N-(3-chloro-1-methyl-1H-pyrazol-4-yl)pyrazolo[1,5-a]pyrimidine-3-carboxamide trifluoroacetate] |
| 0.9 nM | Cn1cc(NC(=O)c2cnn3ccc(N4C[C@@H](N)C[C@H](F)C4)nc23)c(C(F)F)n1 [Example 248, 5-[(3S,5S)-3-amino-5-fluoropiperidin-1-yl]-N-[3-(difluoromethyl)-1-methyl-1H-pyrazol-4-yl]pyrazolo[1,5-a]pyrimidine-3-carboxamide trifluoroacetate] |
| 2 nM | N[C@H]1CCCC[C@H]1Nc1ccn2ncc(C(=O)Nc3cn(C(F)F)nc3C(F)(F)F)c2n1 [Example 296, 5-{[(1R,2S)-2-aminocyclohexyl]amino}-N-[1-(difluoromethyl)-3-(trifluoromethyl)-1H-pyrazol-4-yl]pyrazolo[1,5-a]pyrimidine-3-carboxamide trifluoroacetate] |
| 0.5 nM | Cn1cc(NC(=O)c2cnn3ccc(N[C@H]4CNCCC4(F)F)nc23)c(C(F)(F)F)n1 (single isomer, unassigned) [Example 243, 5-[(R or S)-(4,4-difluoropiperidin-3-yl)amino]-N-[1-methyl-3-(trifluoromethyl)-1H-pyrazol-4-yl]pyrazolo[1,5-a]pyrimidine-3-carboxamide trifluoroacetate] |
| 660 nM | N#Cc1ccccc1NC(=O)c1cnn2ccc(N3CCNCC3)nc12 [Example 274, N-(2-cyanophenyl)-5-piperazin-1-ylpyrazolo[1,5-a]pyrimidine-3-carboxamide trifluoroacetate] |
| 90 nM | CC(C)(C)n1cc(NC(=O)c2cnn3ccc(N4CC5CCC4CN5)nc23)c(C(F)(F)F)n1 (centres unmarked) [Example 50, N-[1-tert-butyl-3-(trifluoromethyl)-1H-pyrazol-4-yl]-5-(2,5-diazabicyclo[2.2.2]oct-2-yl)pyrazolo[1,5-a]pyrimidine-3-carboxamide trifluoroacetate] |
| 237 nM | Cn1cc(NC(=O)c2cnn3ccc(NC4CCCCC4)nc23)cn1 [Example 3, 5-(cyclohexylamino)-N-(1-methyl-1H-pyrazol-4-yl)pyrazolo[1,5-a]pyrimidine-3-carboxamide trifluoroacetate] |
| 59 nM | O=C(Nc1cn(CC(F)F)nc1C(F)(F)F)c1cnn2ccc(N3CC4CCC3CN4)nc12 (centres unmarked) [Example 65, 5-(2,5-diazabicyclo[2.2.2]oct-2-yl)-N-[1-(2,2-difluoroethyl)-3-(trifluoromethyl)-1H-pyrazol-4-yl]pyrazolo[1,5-a]pyrimidine-3-carboxamide trifluoroacetate] |
| 320 nM | O=C(Nc1cn(CC(F)(F)F)nc1C(F)(F)F)c1cnn2ccc(N[C@@H]3CCCC[C@@H]3O)nc12 [Example 57, 5-{[(1R,2S)-2-hydroxycyclohexyl]amino}-N-[1-(2,2,2-trifluoroethyl)-3-(trifluoromethyl)-1H-pyrazol-4-yl]pyrazolo[1,5-a]pyrimidine-3-carboxamide trifluoroacetate] |
| 979 nM | O=C(Nc1ccsc1C(F)(F)F)c1cnn2ccc(N3CC4CCC3CN4)nc12 (centres unmarked) [Example 147, 5-(2,5-diazabicyclo[2.2.2]oct-2-yl)-N-[2-(trifluoromethyl)thiophen-3-yl]pyrazolo[1,5-a]pyrimidine-3-carboxamide trifluoroacetate] |
| 788 nM | N[C@@H]1[C@H](Nc2ccn3ncc(C(=O)Nc4ccccc4Cl)c3n2)CCCC1(F)F [Example 106, 5-{[(1R,2R)-2-amino-3,3-difluorocyclohexyl]amino}-N-(2-chlorophenyl)pyrazolo[1,5-a]pyrimidine-3-carboxamide trifluoroacetate] |

| SMILES | IC50 |
| --- | --- |
| CC(C)n1cc(NC(=O)c2cnn3ccc(N4CCNCC5(CC5)C4)nc23)c(C(F)(F)F)n1 [Example 51, 5-(5,8-diazaspiro[2.6]non-5-yl)-N-[1-(1-methylethyl)-3-(trifluoromethyl)-1H-pyrazol-4-yl]pyrazolo[1,5-a]pyrimidine-3-carboxamide] | 32 nM |
| Cn1cc(NC(=O)c2cnn3ccc(N4CCC[C@@H](O)C4)nc23)c(C(F)(F)F)n1 [Example 23, 5-[(3R)-3-hydroxypiperidin-1-yl]-N-[1-methyl-3-(trifluoromethyl)-1H-pyrazol-4-yl]pyrazolo[1,5-a]pyrimidine-3-carboxamide] | 0.9 nM |
| Cn1cc(NC(=O)c2cnn3ccc(N4C[C@@H]5CNC[C@H]4C5)nc23)c(C(F)F)n1 (single isomer, unassigned) [Example 239, 5-[(1S,5R)- or (1R,5S)-3,6-diazabicyclo[3.2.1]oct-6-yl]-N-[3-(difluoromethyl)-1-methyl-1H-pyrazol-4-yl]pyrazolo[1,5-a]pyrimidine-3-carboxamide] | 3 nM |
| Cn1cc(NC(=O)c2cnn3ccc(N4CCC[C@@H](N)C4)nc23)c(C(F)(F)F)n1 [Example 32, 5-[(3R)-3-aminopiperidin-1-yl]-N-[1-methyl-3-(trifluoromethyl)-1H-pyrazol-4-yl]pyrazolo[1,5-a]pyrimidine-3-carboxamide] | 3 nM |
| Cn1cc(NC(=O)c2cnn3ccc(N4CCN5CCCC5C4)nc23)c(C(F)(F)F)n1 (centres unmarked) [Example 18, 5-(hexahydropyrrolo[1,2-a]pyrazin-2(1H)-yl)-N-[1-methyl-3-(trifluoromethyl)-1H-pyrazol-4-yl]pyrazolo[1,5-a]pyrimidine-3-carboxamide] | 97 nM |
| Cn1cc(NC(=O)c2cnn3ccc(N[C@H]4CNC[C@@H](F)C4)nc23)c(C(F)(F)F)n1 [Example 257, 5-{[(3R,5S)-5-fluoropiperidin-3-yl]amino}-N-[1-methyl-3-(trifluoromethyl)-1H-pyrazol-4-yl]pyrazolo[1,5-a]pyrimidine-3-carboxamide hydrochloride] | 0.6 nM |
| CCN1CCCN(c2ccn3ncc(C(=O)Nc4cn(C)nc4C(F)(F)F)c3n2)CC1 [Example 10, 5-(4-ethyl-1,4-diazepan-1-yl)-N-[1-methyl-3-(trifluoromethyl)-1H-pyrazol-4-yl]pyrazolo[1,5-a]pyrimidine-3-carboxamide] | 1100 nM |
| Cn1cc(NC(=O)c2cnn3ccc(N4C[C@H]5CN[C@H](C5)C4)nc23)c(C(F)F)n1 (single isomer, unassigned) [Example 184, 5-[(1S,5S)- or (1R,5R)-3,6-diazabicyclo[3.2.1]oct-3-yl]-N-[3-(difluoromethyl)-1-methyl-1H-pyrazol-4-yl]pyrazolo[1,5-a]pyrimidine-3-carboxamide trifluoroacetate] | 47 nM |
| Cn1cc(NC(=O)c2cnn3ccc(N[C@H]4CNCC[C@@H]4F)nc23)c(C(F)(F)F)n1 (single isomer, unassigned) [Example 233, 5-{[(3R,4R)- or (3S,4S)-4-fluoropiperidin-3-yl]amino}-N-[1-methyl-3-(trifluoromethyl)-1H-pyrazol-4-yl]pyrazolo[1,5-a]pyrimidine-3-carboxamide] | 0.5 nM |
| CC(C)(C)n1cc(NC(=O)c2cnn3ccc(N[C@@H]4CCCC[C@@H]4O)nc23)c(C(F)(F)F)n1 [Example 48, N-[1-tert-butyl-3-(trifluoromethyl)-1H-pyrazol-4-yl]-5-{[(1R,2S)-2-hydroxycyclohexyl]amino} pyrazolo[1,5-a]pyrimidine-3-carboxamide trifluoroacetate] | 259 nM |
| Cn1cc(NC(=O)c2cnn3ccc(N[C@H]4CCCCC[C@H]4N)nc23)c(C(F)(F)F)n1 (single isomer, unassigned) [Example 55, 5-{[(1R,2S)- or (1S,2R)-2-aminocycloheptyl]amino}-N-[1-methyl-3-(trifluoromethyl)-1H-pyrazol-4-yl]pyrazolo[1,5-a]pyrimidine-3-carboxamide] | 8 nM |
| CC(C)n1cc(NC(=O)c2cnn3ccc(N[C@@H]4CCCC[C@@H]4O)nc23)c(C(F)F)n1 [Example 199, N-[3-(difluoromethyl)-1-(1-methylethyl)-1H-pyrazol-4-yl]-5-{[(1R,2S)-2-hydroxycyclohexyl]amino} pyrazolo[1,5-a]pyrimidine-3-carboxamide] | 9 nM |
| Cn1cc(NC(=O)c2cnn3ccc(N4CC5CNC(C5)C4)nc23)c(C(F)(F)F)n1 (centres unmarked) [Example 223, 5-(3,6-diazabicyclo[3.2.1]oct-3-yl)-N-[1-methyl-3-(trifluoromethyl)-1H-pyrazol-4-yl]pyrazolo[1,5-a]pyrimidine-3-carboxamide trifluoroacetate] | 57 nM |
